Consider one compound from publication PMC11079024, “Identification of a family of species-selective complex I inhibitors as potential anthelmintics” (Nature Communications, 2024).

One data set deals with L1 wild-type C. elegans. The settings on record: 50 μM compound; […]; hit = relative motility below 0.25 3 hours after removal of KCN.
For data set [1], the target named is B. taurus (heart) complex I (Bos taurus, UniProt P03887+P17694+P42026). In words: biochemical. The format is biochemical. Put shortly: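 Complex I activity followed as DCIP reduction (600 nm, 30 s reads, 15 min) with 80 μM NADH and 60 μM decylubiquinone in 25 mM KPi pH 7.5 containing 2 μM antimycin A and 2 mM KCN. Freeze-thawed mouse or bovine heart mitochondria at 0.2 mg/mL; initial-rate percent of solvent control, single-point 100 μM or dose-response.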
B. taurus (heart) complex I, sequence (P03887 whole entry): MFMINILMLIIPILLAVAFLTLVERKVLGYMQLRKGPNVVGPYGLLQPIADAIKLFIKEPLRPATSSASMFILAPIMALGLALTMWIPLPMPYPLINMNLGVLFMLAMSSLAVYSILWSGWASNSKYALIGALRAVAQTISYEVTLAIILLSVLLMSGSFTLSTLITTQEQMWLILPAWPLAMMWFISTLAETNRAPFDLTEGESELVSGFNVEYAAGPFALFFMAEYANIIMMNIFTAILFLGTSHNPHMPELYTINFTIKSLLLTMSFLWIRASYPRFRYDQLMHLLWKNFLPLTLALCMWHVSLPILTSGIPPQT
B. taurus (heart) complex I, sequence (P17694 34-463): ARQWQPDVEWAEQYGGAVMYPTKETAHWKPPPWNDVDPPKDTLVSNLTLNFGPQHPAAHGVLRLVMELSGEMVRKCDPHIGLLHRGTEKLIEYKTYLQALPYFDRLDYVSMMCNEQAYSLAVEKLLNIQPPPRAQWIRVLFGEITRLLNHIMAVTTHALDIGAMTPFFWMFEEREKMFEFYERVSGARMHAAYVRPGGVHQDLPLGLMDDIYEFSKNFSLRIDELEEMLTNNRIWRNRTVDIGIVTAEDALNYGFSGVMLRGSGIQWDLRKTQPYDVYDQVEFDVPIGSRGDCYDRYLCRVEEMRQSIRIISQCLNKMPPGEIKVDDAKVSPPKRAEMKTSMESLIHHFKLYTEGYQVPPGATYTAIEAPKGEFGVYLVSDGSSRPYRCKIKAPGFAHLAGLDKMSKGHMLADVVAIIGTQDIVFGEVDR
B. taurus (heart) complex I, sequence (P42026 38-216): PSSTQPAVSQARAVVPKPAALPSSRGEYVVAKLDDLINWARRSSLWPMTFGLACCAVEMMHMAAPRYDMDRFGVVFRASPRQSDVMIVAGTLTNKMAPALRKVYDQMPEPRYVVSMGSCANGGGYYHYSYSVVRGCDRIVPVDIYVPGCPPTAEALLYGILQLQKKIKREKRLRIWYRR

A further data set can be described thus: in vitro. The conditions noted are these: human.
In data set [2] the test system is ben-1 mutant (ECA882) C. elegans. Briefly: microbe, parasite or virus in culture. The settings on record: Caenorhabditis elegans. Put shortly:
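L1 larvae (~2 worms/μL in M9) in liquid NGM with 2-fold concentrated E. coli HB101, compound at 1% DMSO, 6 days at 20 °C shaking 165 rpm. Well images scored as summed worm-associated pixels, normalized to DMSO controls; relative viability averaged over at least three biological replicates.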

Where two headings read alike, the source gives them in different places.

The term IC50 denotes the concentration that inhibits the measured activity by half. Broadly, the LC50 is the concentration lethal to half of the exposed cells or organisms. As to `Cc1ccc2nc(C(C)c3ccc(CC(C)C)cc3)[nH]c2c1` (stereo not shown) [STL482096], the “Screen "Hit"” value in the data set on L1 wild-type C. elegans is reported as “Y (hits were identified as compounds that reduced relative motility below 0.25 (75% reduction))”. Moreover, in data set [1] (B. taurus heart mitochondria, estimated from fitted dose-response curves, read-out: B. taurus Complex I IC50), the IC50 is 12.3 µM. Further, the “Log IC50 B. taurus complex I” value in data set [1] (log10 of IC50 in µM, B. taurus mitochondria) is on record as 1.09 µM. Further, the CC50 at 2 days in “in vitro” was below 12.5 µM. Further, the LC50 was above 1000 µM in data set [2] (read-out: C. elegans (ben-1) Development & Viability Assay LC50), above 500 µM in data set [2] (read-out: C. elegans ben-1 LC50) and above 500 µM in data set [2] (read-out: C. elegans ben-1 log10 LC50 (converted)).
